# Assay results taken from patent US10080366B2, “Agent for increasing sugar content in fruit” (RIKEN, priority 2012, dated 2018).
# Like-named read-outs stand apart in the source and are kept apart here.
# Columns and labels:
# [1] = tested on: harvested fruit of grape (variety: Barikan); conditions: for Sugar content (%) on date of application (Jun. 2): before application
# Protocol: The fruit of grape was maintained in an air-conditioned greenhouse (temperature: 25° C.), and measured for the mass over time. The sugar content of the fruit was measured before the application and 8 days after the application with a sugar content meter. Next, on the assumption that the change in the mass of the fruit was entirely due to the change in water content, calculated values of the amount of decrease in mass and the sugar content on the date (June 2) of the application were determined […] by using the following calculation formula. (Calculated as follows: the sugar content (%) calculated value))=the sugar content (%) before application×the mass (g) on the date of application/the mass (g) on the date of measurement))
# [2] = tested on: fruit of grape (variety: Red Globe)
# Protocol: An agent for increasing a sugar content in a fruit (containing Sorbon T-20 as a spreader/sticker at a final concentration of 200 μL/L) diluted with water to have a potassium hydrogen carbonate concentration of 10 g/L was prepared. The mass of fruit of grape (variety: Red Globe) purchased on the market was measured. Then, the prepared agent for increasing a sugar content in a fruit was applied by spraying to the fruit of grape. Then, the fruit of grape was allowed to stand in an air-conditioned greenhouse (temperature: 25° C.), and the mass was measured over time (date of application: Apr. 27, 2011; dates of test: May 2, 2011, May 6, 2011, May 9, 2011, May 11, 2011, May 13, 2011, and May 16, 2011). In addition, as a control, the mass of untreated grape was measured on each date of measurement in the same manner.
# On the basis of the measured mass, the estimated amount (cumulative value) of transpiration and the estimated amount of transpiration per day were calculated. The results are shown in Tables 5 and 6 and FIGS. 10 and 11.
# Note that the vertical axis in FIG. 10 represents the mass (g) of the fruit of grape on each of the dates of measurement per 100 g of the fruit of grape on the date of application, and the vertical axis in FIG. 11 represents the estimated amount (g) of transpiration on each of the dates of measurement per 100 g of the fruit of grape on the date of application. The estimated amount (g) of transpiration on each of the dates of measurement per 100 g of the fruit of grape on the date of application=(the mass (g) of the fruit of grape on the date of application−the mass (g) of the fruit of grape on the date of measurement)/the mass of the fruit of grape on the date of application×100
# [3] = tested on: fruit of grape (variety: Red Globe); conditions: for Sugar content (%) May 16: date of application; for mass of fruit as % of the mass on the date of application: 17 days later; for Sugar content (%) Jun. 2 Calculated value: calculated from decrease in mass
# Protocol: The mass of fruit of grape (variety: Red Globe) purchased on the market was measured. Then, the prepared agents for increasing a sugar content in a fruit were applied by spraying to the fruit of grape, which was then allowed to stand in an air-conditioned greenhouse (temperature: 25° C.). With the mass of the grape on the date of application being 100 g, the mass of the grape after the application was measured over time (date of application: May 16, 2011; dates of test: May 19, May 23, May 27, May 30, and Jun. 2, 2011). Next, on the assumption that the change in mass of the fruit was entirely due to the change in water content, the calculated value of the sugar content was determined from the amount of decrease in mass and the sugar content on the date […] of the application (calculated as follows: “the sugar content (calculated value)=the sugar content (%) on the date of application×the mass (g) on the date of application/the mass (g) on the date of measurement”). In addition, as a control, the mass of untreated grape was measured in the same manner. The results are shown in Tables 7 and 8 and FIGS. 12 to 14.
# [4] = tested on: clusters of grape (variety: Crimson); test: Estimated transpiration ratio of grape clusters (Example 9); format: in vivo; conditions: 10 g/L; 8 days after treatment
# Tomato = conditions: 6 days after treatment
# Mikan = conditions: 6 days after treatment
# [5] = 10 g/L, 25° C., mass 100 g on date of application
# [6] = approximately 3 weeks later (19 days later)
compound,measurement,setting,value
"O=C([O-])[O-].[K+].[K+] [Potassium carbonate, potassium carbonate]",decrease of mass of fruit in 8 days (June 2 to June 10),[1]; 10 g/L,25.56%
same,"Sugar content (%) 8 days later, actually measured value","[1]; 10 g/L, 25° C.",24.5%
same,Mass (g) 6 days later (Jun. 8),[1]; [5],80.7 g
same,Mass (g) 8 days later (Jun. 10),[1]; [5],74.5 g
same,action to increase the sugar content in the fruit (comparison),"[1]; 10 g/L, 8 days",the best
same,"Sugar content (%) 8 days later, calculated value","[1]; 10 g/L, calculated from decrease in mass",24.2%
same,Sugar content (%) on date of application (Jun. 2),[1],18.0%
same,Sugar content (%) on date of application (Jun. 2),[1]; listed as potassium carbonate,18%
same,sugar concentration in the fruit (suggested),"[2]; 2 weeks later, assuming 20% on April 27, 20/41.4",exceeded 48%
same,Estimated amount (g) of transpiration per 100 g of fruit on date of application,[2]; 5 days later,18.8 g
same,Mass (g) of fruit per 100 g of fruit on date of application,[2]; 5 days later (applied Apr. 27),81.2 g
same,Estimated amount (g) of transpiration per 100 g of fruit on date of application,[2]; 9 days later,31.5 g
same,Mass (g) of fruit per 100 g of fruit on date of application,[2]; 9 days later,68.5 g
same,Estimated amount (g) of transpiration per 100 g of fruit on date of application,[2]; 12 days later,40 g
same,Mass (g) of fruit per 100 g of fruit on date of application,[2]; 12 days later,60 g
same,Estimated amount (g) of transpiration per 100 g of fruit on date of application,[2]; 14 days later,45.8 g
same,Mass (g) of fruit per 100 g of fruit on date of application,[2]; 14 days later,54.2 g
same,Estimated amount (g) of transpiration per 100 g of fruit on date of application,[2]; 16 days later,51.3 g
same,Mass (g) of fruit per 100 g of fruit on date of application,[2]; 16 days later,48.7 g
same,Estimated amount (g) of transpiration per 100 g of fruit on date of application,[2]; 19 days later,58.6 g
same,Mass (g) of fruit per 100 g of fruit on date of application,[2]; 19 days later,41.4 g
same,mass as % of the mass on the date of application,[2]; [6],41.4%
same,ratio of transpiration of the fruit,[2]; [6],58.6%
same,mass relative to mass on the date of application,[2]; in 2 weeks,approximately ½
same,estimated amount of transpiration relative to untreated fruit,[2]; in vivo,two times or more of that of the untreated fruit
same,Sugar content (%) May 16,[3]; 5 g/L group,17.6%
same,mass of fruit as % of the mass on the date of application,[3]; 5 g/L,66.6%
same,mass (g) of the fruit,"[3]; 5 g/L, Jun. 2",66.6 g
same,mass (g) of the fruit,"[3]; 5 g/L, May 19, 100 g on May 16",90.8 g
same,mass (g) of the fruit,"[3]; 5 g/L, May 23",84.5 g
same,mass (g) of the fruit,"[3]; 5 g/L, May 27",77 g
same,mass (g) of the fruit,"[3]; 5 g/L, May 30",72.1 g
same,Sugar content (%) Jun. 2 Calculated value,[3]; 5 g/L,26.5%
same,Sugar content (%) May 16,[3]; 10 g/L group,18.2%
same,mass of fruit as % of the mass on the date of application,[3]; 10 g/L,65%
same,mass (g) of the fruit,"[3]; 10 g/L, Jun. 2",65 g
same,mass (g) of the fruit,"[3]; 10 g/L, May 19, 100 g on May 16",90.6 g
same,mass (g) of the fruit,"[3]; 10 g/L, May 23",83.9 g
same,mass (g) of the fruit,"[3]; 10 g/L, May 27",75.9 g
same,mass (g) of the fruit,"[3]; 10 g/L, May 30",70.6 g
same,Sugar content (%) Jun. 2 Calculated value,[3]; 10 g/L,28%
same,Estimated transpiration ratio (%) Average,[4],33%
same,Estimated transpiration ratio (%) First,[4],35%
same,Estimated transpiration ratio (%) Second,[4],31%
same,Ratio (%) of decrease in body weight of fruit,Tomato; dilution ratio 50 (20 g/L),21.1%
same,Ratio (%) of decrease in body weight of fruit,Tomato; dilution ratio 100 (10 g/L),18.0%
same,Ratio (%) of decrease in body weight of fruit,Mikan; dilution ratio 50 (20 g/L),12.0%
same,Ratio (%) of decrease in body weight of fruit,Mikan; dilution ratio 100 (10 g/L),12.4%
